pIC50: −log10 of the molar value.

By pIC50 is commonly meant the negative decadic logarithm of the IC50, by convention in mol/L. A higher pIC50 goes with a small IC50.

This assay is described as follows: Inhibition of GSK3-beta phosphorylation in human BT474 cells.
`Cc1n[nH]c2cnc(-c3cc(OC[C@@H](N)Cc4c[nH]c5ccccc45)cnc3-c3ccoc3)cc12` [(S)-1-(6-(furan-3-yl)-5-(3-methyl-1H-pyrazolo[3,4-c]pyridin-5-yl)pyridin-3-yloxy)-3-(1H-indol-3-yl)propan-2-amine] showed a pIC50 of 7.19.

The compound `Cc1n[nH]c2ccc(-c3cc(OC[C@@H](N)Cc4c[nH]c5ccccc45)cnc3-c3ccoc3)nc12` [(S)-1-(6-(furan-3-yl)-5-(3-methyl-1H-pyrazolo[4,3-b]pyridin-5-yl)pyridin-3-yloxy)-3-(1H-indol-3-yl)propan-2-amine] had a pIC50 of 5.41.

On to `Cc1n[nH]c2ncc(-c3cc(OC[C@@H](N)Cc4c[nH]c5ccccc45)cnc3-c3ccoc3)nc12` [(S)-1-(6-(furan-3-yl)-5-(3-methyl-1H-pyrazolo[4,3-b]pyrazin-5-yl)pyridin-3-yloxy)-3-(1H-indol-3-yl)propan-2-amine], for which the pIC50 was 6.80.

`Cc1n[nH]c2ncc(-c3cc(OC[C@@H](N)Cc4c[nH]c5ccccc45)cnc3-c3ccoc3)cc12` [(S)-1-(6-(furan-3-yl)-5-(3-methyl-1H-pyrazolo[3,4-b]pyridin-5-yl)pyridin-3-yloxy)-3-(1H-indol-3-yl)propan-2-amine] showed a pIC50 of 6.59.

The record behind these values is BindingDB's records for doi:10.1016/j.bmcl.2009.11.060 (Glaxosmithkline, 2010).
